We go through eight compounds from ChEMBL document CHEMBL1147947, “In vitro activity of novel dual action MDR anthranilamide modulators with inhibitory activity on CYP-450 (Part 2)” (Bioorg Med Chem, 2007).

pIC50: −log10 of the molar value. Calls of active or inactive are those of the source. The calls are words filed in the database; no cut-off is given here. A value given as a limit tells only on which side of the number the result lay.

Assay [1] can be described thus: Growth inhibition of human CEM/VLB500 cells after 3 days by resazurin assay. The class given is functional. The settings on record: CEM/VLB500, 72 h. For orientation: The colour change of resazurin is a common sign of viable cells or microbes.
The target in assay [2] is Cytochrome P450 2D6 (Homo sapiens, UniProt P10635). Kind of assay: Inhibition of human CYP2D6 expressed in insect microsome after 30 mins. It counts as ADME, microsomes.
Chain of Cytochrome P450 2D6 (P10635 whole entry): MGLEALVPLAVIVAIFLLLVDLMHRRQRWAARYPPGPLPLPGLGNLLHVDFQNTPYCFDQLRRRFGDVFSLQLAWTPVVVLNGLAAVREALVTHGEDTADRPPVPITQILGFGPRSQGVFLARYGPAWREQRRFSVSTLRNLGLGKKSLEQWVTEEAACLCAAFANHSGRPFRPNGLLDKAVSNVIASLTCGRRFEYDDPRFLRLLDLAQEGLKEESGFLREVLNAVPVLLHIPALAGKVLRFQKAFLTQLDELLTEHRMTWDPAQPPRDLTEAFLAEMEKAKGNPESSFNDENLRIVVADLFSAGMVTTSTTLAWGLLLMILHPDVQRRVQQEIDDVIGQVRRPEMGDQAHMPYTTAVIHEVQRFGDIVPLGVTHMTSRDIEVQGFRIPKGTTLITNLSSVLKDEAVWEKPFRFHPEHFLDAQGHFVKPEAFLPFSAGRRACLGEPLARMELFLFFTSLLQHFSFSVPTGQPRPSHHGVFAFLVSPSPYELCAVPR
Assay [3] deals with Cytochrome P450 2E1 (Homo sapiens, UniProt P05181). Briefly: Inhibition of human CYP2E1 expressed in insect microsome after 45 mins. It counts as ADME, microsomes.
Chain of Cytochrome P450 2E1 (P05181 whole entry): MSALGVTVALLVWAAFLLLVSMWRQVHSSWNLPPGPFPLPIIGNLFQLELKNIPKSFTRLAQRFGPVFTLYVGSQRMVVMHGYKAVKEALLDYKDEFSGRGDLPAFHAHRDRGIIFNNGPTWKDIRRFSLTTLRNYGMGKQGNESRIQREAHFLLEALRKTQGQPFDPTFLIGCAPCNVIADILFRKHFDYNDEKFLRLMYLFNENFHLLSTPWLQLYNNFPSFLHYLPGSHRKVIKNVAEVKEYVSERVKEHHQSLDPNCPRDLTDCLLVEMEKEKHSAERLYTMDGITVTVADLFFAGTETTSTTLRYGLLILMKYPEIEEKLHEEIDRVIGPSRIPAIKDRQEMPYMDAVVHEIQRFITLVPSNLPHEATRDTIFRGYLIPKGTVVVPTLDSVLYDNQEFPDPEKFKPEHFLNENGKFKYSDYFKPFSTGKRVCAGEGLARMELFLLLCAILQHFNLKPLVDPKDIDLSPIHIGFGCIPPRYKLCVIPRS
The target of assay [4] is Cytochrome P450 2C19 (Homo sapiens, UniProt P33261). Kind of assay: Inhibition of human CYP2C19 expressed in insect microsome after 30 mins. The class given is ADME, microsomes.
Chain of Cytochrome P450 2C19 (P33261 whole entry): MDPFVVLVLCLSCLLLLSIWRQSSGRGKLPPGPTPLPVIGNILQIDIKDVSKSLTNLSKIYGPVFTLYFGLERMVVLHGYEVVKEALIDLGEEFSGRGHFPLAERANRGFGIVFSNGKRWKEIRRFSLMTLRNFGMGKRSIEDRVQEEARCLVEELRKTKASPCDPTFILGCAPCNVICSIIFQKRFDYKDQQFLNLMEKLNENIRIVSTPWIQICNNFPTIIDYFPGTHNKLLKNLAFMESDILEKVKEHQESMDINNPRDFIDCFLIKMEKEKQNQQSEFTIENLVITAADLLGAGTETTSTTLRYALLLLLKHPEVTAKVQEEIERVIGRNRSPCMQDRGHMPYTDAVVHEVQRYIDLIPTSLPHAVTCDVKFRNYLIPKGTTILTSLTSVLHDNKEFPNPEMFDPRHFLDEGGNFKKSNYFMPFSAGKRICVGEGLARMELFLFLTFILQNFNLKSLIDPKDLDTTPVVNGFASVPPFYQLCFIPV
For assay [5], the target named is Cytochrome P450 2C9 (Homo sapiens, UniProt P11712). Kind of assay: Inhibition of human CYP2C9 expressed in insect microsome after 45 mins. The class given is ADME, microsomes.
Chain of Cytochrome P450 2C9 (P11712 whole entry): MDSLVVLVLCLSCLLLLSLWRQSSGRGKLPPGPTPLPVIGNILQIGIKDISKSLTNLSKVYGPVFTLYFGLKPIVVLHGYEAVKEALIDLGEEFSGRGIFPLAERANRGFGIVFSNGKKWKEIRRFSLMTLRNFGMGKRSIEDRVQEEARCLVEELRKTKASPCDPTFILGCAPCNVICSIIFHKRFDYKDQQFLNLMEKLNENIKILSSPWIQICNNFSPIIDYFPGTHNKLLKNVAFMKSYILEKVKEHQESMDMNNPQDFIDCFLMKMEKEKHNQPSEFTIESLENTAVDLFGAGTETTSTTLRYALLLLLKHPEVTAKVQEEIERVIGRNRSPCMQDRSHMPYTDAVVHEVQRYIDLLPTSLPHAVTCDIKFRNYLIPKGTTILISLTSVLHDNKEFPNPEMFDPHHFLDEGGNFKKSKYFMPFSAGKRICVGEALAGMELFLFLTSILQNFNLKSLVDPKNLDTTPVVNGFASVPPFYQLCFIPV
Assay [6] has as its target T1, Cytochrome P450 2C8 (Homo sapiens, UniProt P10632).
T1 sequence (P10632 whole entry): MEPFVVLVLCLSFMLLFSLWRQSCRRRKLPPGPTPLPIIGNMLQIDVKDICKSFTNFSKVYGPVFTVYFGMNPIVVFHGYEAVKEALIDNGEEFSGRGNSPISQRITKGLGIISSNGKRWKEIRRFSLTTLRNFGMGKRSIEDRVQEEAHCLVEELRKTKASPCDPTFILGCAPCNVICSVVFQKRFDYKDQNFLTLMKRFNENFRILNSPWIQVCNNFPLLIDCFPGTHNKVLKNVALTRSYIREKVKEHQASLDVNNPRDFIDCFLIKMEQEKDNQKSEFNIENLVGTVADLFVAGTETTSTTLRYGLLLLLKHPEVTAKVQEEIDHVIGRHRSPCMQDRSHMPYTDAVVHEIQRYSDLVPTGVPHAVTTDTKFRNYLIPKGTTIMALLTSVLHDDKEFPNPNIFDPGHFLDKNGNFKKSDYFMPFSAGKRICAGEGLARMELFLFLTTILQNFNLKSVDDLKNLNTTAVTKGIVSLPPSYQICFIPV
Kind of assay: Inhibition of human CYP2C8 expressed in insect microsome after 30 mins. It counts as ADME, microsomes.

In assay [7] the target is T2, Cytochrome P450 2A6 (Homo sapiens, UniProt P11509).
T2 sequence (P11509 whole entry): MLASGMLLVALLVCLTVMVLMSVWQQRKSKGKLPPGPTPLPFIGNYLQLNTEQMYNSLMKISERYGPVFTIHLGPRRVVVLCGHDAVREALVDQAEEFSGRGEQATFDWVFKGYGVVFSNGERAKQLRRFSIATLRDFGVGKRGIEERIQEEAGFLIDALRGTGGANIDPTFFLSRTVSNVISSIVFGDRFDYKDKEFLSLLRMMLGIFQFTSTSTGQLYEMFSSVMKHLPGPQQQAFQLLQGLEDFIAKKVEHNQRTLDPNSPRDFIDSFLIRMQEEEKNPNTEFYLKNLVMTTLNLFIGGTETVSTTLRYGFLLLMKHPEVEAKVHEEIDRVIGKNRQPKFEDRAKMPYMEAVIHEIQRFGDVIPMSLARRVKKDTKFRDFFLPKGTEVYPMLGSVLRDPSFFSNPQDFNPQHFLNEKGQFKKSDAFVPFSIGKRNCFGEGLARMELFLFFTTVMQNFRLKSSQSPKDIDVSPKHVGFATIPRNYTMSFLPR
Kind of assay: Inhibition of human CYP2A6 expressed in insect microsome after 15 mins. It counts as ADME, microsomes.

In assay [8] the target is T3, Cytochrome P450 2B6 (Homo sapiens, UniProt P20813).
T3 sequence (P20813 whole entry): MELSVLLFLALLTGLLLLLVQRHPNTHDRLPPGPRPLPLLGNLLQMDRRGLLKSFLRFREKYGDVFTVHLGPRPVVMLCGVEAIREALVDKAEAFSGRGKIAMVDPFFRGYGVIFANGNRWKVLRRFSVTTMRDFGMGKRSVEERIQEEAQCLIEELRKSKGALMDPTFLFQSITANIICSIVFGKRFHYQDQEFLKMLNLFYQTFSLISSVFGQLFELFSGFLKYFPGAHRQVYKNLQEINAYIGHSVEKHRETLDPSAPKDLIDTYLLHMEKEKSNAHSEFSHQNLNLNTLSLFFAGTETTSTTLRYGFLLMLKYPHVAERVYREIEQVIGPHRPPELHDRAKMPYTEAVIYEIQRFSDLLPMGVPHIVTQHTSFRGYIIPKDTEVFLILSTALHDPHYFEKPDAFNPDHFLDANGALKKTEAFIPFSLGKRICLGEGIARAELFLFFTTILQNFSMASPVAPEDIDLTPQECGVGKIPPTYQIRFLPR
Kind of assay: Inhibition of human CYP2B6 expressed in insect microsome after 30 mins. It counts as ADME, microsomes.

Assay [9] relates to CEM/VLB500. Briefly: Growth inhibition of human CEM/VLB500 cells at 1 uM after 3 days by resazurin assay. It counts as functional, cell-based.
The target of assay [10] is Cytochrome P450 3A4 (Homo sapiens, UniProt P08684). Briefly: Inhibition of human CYP3A4 expressed in insect microsome using 7-benzyloxy-4-trifluoromethylcoumarin substrate after 30 mins. It counts as ADME, microsomes.
Chain of Cytochrome P450 3A4 (P08684 whole entry): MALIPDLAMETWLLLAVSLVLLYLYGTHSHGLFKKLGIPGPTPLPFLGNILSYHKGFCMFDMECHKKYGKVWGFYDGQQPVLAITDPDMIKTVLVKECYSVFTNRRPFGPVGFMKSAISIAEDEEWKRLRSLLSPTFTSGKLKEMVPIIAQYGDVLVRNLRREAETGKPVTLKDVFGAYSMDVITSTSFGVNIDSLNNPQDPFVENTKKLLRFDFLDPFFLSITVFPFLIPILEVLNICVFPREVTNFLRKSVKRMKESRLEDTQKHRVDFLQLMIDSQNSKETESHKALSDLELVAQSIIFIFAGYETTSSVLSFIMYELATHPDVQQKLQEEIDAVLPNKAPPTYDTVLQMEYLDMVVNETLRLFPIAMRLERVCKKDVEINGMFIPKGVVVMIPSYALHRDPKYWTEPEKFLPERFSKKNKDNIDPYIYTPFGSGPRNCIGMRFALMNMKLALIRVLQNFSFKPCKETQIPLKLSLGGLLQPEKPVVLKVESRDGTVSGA
Assay [11] addresses T4, Cytochrome P450 1A2 (Homo sapiens, UniProt P05177).
T4 sequence (P05177 whole entry): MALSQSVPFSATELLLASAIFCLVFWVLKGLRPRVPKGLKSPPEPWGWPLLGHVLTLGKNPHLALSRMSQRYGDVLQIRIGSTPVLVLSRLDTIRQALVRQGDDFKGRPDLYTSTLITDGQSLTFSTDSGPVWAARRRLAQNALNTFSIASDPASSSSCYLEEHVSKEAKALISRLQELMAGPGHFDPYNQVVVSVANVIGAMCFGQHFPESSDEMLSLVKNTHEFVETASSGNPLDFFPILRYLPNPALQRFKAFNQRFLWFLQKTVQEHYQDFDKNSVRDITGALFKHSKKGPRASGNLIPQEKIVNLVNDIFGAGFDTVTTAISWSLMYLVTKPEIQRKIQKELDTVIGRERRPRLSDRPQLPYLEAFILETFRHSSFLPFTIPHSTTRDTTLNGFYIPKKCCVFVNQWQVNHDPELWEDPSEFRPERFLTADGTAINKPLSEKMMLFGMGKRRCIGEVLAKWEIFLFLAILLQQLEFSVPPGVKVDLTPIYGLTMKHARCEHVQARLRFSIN
Kind of assay: Inhibition of human CYP1A2 expressed in insect microsome after 15 mins. The class given is ADME, microsomes.

The GI50 is the concentration at which growth is held to half of that of the control. On to `COc1ccc(CCN2CCC[C@H]2CNC(=O)c2ccccc2NC(=O)c2cnc3ccccc3c2)cc1OC`, for which the GI50 in assay [1] is over 15 µM.

One may read the pIC50 as the negative decadic logarithm of the IC50, by convention in mol/L. The low end stands for a high IC50, the high end for a low IC50. As to `COc1cc2c(cc1OC)CN(CCc1ccc(NC(=O)c3cc(OC)c(OC)cc3NC(=O)c3cnc4ccccc4c3)cc1)CC2`, the negative-log IC50 (pIC50) in assay [2] is 4.00; in assay [3], under 4.00; in [4] it was under 5.00; in assay [5], 5.15; in [6], 4.34; in assay [7], under 4.00. The compound further had a pIC50 in [8] of under 4.00. Further, the GI50 in assay [1] was found to be 13.5 µM.

For the compound `O=C(Nc1ccccc1C(=O)N[C@@H]1CCCC[C@@H]1N1CCN(c2ccccc2)CC1)c1cnc2ccccc2c1` (racemic), in assay [1], the GI50 is 11.5 µM.

As for `COc1ccc(CN2CCN(c3ccc(NC(=O)c4cc(OC)c(OC)cc4NC(=O)c4cnc5ccccc5c4)cc3)CC2)cc1OC`, the pIC50 is 4.76 in [2]; 6.41 in [4]; 7.01 in assay [5]; 6.71 in assay [10]; 5.18 in assay [11]; 5.97 in assay [6]. The compound further showed a negative logarithm of the IC50 (pIC50) in assay [8] of 4.00. Further, the result in assay [9] was inactive. Also, the GI50 in assay [1] is at least 15 µM.

Turning to `COc1ccc(CCN(C)CCC[C@@](C#N)(c2ccc(OC)c(OC)c2)C(C)C)cc1OC`, the GI50 in [1] was over 15 µM.

For `COc1ccc(CN2CCN(c3ccc(NC(=O)c4ccccc4NC(=O)c4cnc5ccccc5c4)cc3)CC2)cc1OC`, the negative-log IC50 (pIC50) was under 4.00 in assay [2]; under 4.00 in assay [3]; 4.64 in [4]; under 5.00 in assay [5]; 4.69 in assay [10]; under 4.00 in assay [11]. Further, the pIC50 in assay [6] is 4.88; in assay [7] it was under 4.00; in assay [8], under 4.00. For the same compound, the concentration for 50% growth inhibition (GI50) in assay [1] was over 15 µM.

Take `COc1ccc(CCN2CCC[C@@H]2CNC(=O)c2ccccc2NC(=O)c2cnc3ccccc3c2)cc1OC`: the GI50 in assay [1] is over 15 µM.

For the compound `COc1ccc(CCN(C)CCNC(=O)c2ccccc2NC(=O)c2cnc3ccccc3c2)cc1OC`, the pIC50 in assay [2] is under 4.00; in assay [3], under 4.00; in assay [4], 4.83; in assay [5], 5.68; in assay [10] it was 5.79; in assay [11], under 4.00. In addition, the pIC50 in assay [6] was 5.24; in assay [7], under 4.00; in assay [8] it was under 4.00.
